The source of these data is patent US9303015B2, “Heteroaryl linked quinolinyl modulators of RORγt” (Janssen Pharmaceutica NV, priority 2012, dated 2016).

Values joined by “and” are separate entries in the source; they are usually repeats but may differ in a detail not shown here. Equal values may be shown once. Where a name gives a salt, the structure may show the parent alone.

The target in assay [1] is human RORγt ligand binding domain (RORγt LBD) (Homo sapiens (Human), UniProt P51449). Description: RORγt ThermoFluor assay (thermal shift, binding affinity). To be noted: estimated from thermal shift concentration response. The procedure: This approach is applicable to a wide variety of systems, and rigorous in theoretical interpretation through quantitation of equilibrium binding constants (KD).
Sequence of human RORγt ligand binding domain (RORγt LBD) (P51449 other isoform, or with tags, fused parts or gaps): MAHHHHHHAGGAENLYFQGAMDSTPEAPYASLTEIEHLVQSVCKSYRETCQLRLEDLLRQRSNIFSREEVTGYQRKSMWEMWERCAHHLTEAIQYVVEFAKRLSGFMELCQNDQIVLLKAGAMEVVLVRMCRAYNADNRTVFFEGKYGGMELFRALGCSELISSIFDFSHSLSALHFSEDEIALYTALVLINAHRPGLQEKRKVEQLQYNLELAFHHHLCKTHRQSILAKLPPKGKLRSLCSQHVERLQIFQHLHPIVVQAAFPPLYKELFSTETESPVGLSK
The shift in the melting point described as a ΔTm is proportional to the concentration and affinity of the ligand.
ThermoFluor® experiments were carried out using instruments owned by Janssen Research and Discovery, L.L.C. through its acquisition of 3-Dimensional Pharmaceuticals, Inc. 1,8-ANS (Invitrogen) was used as a fluorescent dye. Protein and compound solutions are dispensed into black 384-well polypropylene PCR microplates (Abgene) and overlayed with silicone oil (1 μL, Fluka, type DC 200) to prevent evaporation.
Bar-coded assay plates are robotically loaded onto a thermostatically controlled PCR-type thermal block and then heated at a typical ramp-rate of 1° C./min for all experiments. Fluorescence was measured by continuous illumination with UV light (Hamamatsu LC6) supplied via fiber optic and filtered through a band-pass filter (380-400 nm; >60D cutoff). Fluorescence emission of the entire 384-well plate was detected by measuring light intensity using a CCD camera (Sensys, Roper Scientific) filtered to detect 500±25 nm, resulting in simultaneous and independent readings of all 384 wells. Images were collected at each temperature, and the sum of the pixel intensity in a given area of the assay plate was recorded versus temperature. Reference wells contained RORγt without compounds, and the assay conditions were as follows: • 0.065 mg/mL RORγt • 60 μM 1,8-ANS • 100 mM Hepes, pH 7.0 • 10 mM NaCl • 2.5 mM GSH • 0.002% Tween-20
Project compounds were arranged in a pre-dosed mother plate (Greiner Bio-one) wherein compounds are serially diluted in 100% DMSO by 1:2 from a high concentration of 10 mM over 12 columns within a series (column 12 is a reference well containing DMSO, no compound). The compounds were robotically dispensed directly into assay plates (1x=[…]) using a Hummingbird capillary liquid handling instrument (Digilab). Following compound dispense, protein and dye in buffer was added to achieve the final assay volume of 3 μL, followed by 1 μL of silicone oil.

The next assay concerns the target human RORγt LBD (Homo sapiens (Human), UniProt P51449). Description: RORγt reporter assay (GAL4-RORγt LBD luciferase, HEK293T cells). The assay is classed as cell-based. To be noted: for inhibition at 6 µM: HEK-293T, read-out: RORγt reporter Assay, % inhibition @ 6 μM, 6 μM, HEK293T cells. The text has this:
A reporter assay was used to test functional activity of RORγt modulatory compounds on transcriptional activation driven by the RORγt LBD. Cells used in the assay were co-transfected with two constructs. The first construct, pBIND-RORγt LBD, contained the wild type human RORγt LBD fused to the DNA binding domain of the GAL4 protein. The second construct, pGL4.31 (Promega Cat no. C935A), contained multiple GAL4 responsive DNA elements upstream of firefly luciferase. […] The mutant construct was called pBIND-RORγt-AF2. […] The pBIND vector contains the GAL4 DNA Binding Domain (GAL4 DBD) and the renilla luciferase gene under control of the SV40 promoter. Renilla luciferase expression serves as a control for transfection efficiency and cell viability.
The reporter assay was performed by transiently transfecting HEK293T cells with 5 μg of pBIND-RORγt LBD or pBIND-RORγt LBD-AF2 and 5 μg pGL4.31 (Promega Cat no. C935A) using Fugene 6 (Invitrogen Cat no. E2691) at a 1:6 ratio of DNA: Fugene 6 in a T-75 flask in which cells were at least 80% confluent. Twenty four hours after bulk transfection, cells were plated into 96-well plates at 50,000 cells/well in phenol-red free DMEM containing 5% Lipid Reduced FCS and Pen/Strep. Six hours after plating, cells were treated with compounds for 24 hours. Media was removed and cells were lysed with 50 μL 1x Glo Lysis Buffer (Promega). Dual Glo Luciferase Reagent (50 μL/well) was then added and firefly luciferase luminescence was read on an Envision after a ten minute incubation. Finally, Stop and Glo reagent (50 μL/well) was added and renilla luciferase luminescence was read on an Envision after a ten minute incubation. To calculate the effect of compounds on RORγt activity, the ratio of firefly to renilla luciferase was determined and plotted against compound concentration. Agonist compounds increase RORγt-driven luciferase expression, and antagonist or inverse agonist compounds decrease luciferase expression.
A general note: A reporter such as luciferase makes a cellular process visible.

Assay [2] deals with IL-17 production by CD4 T cells. Description: Human Th17 assay. The class given is cell-based. To be noted: IL-17 in supernatant after 3 days, human CD4+ T cells under Th17 differentiation. The source says: The human Th17 assay tests the effect of RORγt modulatory compounds on IL-17 production by CD4 T cells under conditions which favor Th17 differentiation.
Total CD4^+ T cells were isolated from the peripheral blood mononuclear cells (PBMC) of healthy donors using a CD4^+ T cell isolation kit II, following the manufacturer's instructions (Miltenyi Biotec). Cells were resuspended in a medium of RPMI-1640 supplemented with 10% fetal bovine serum, penicillin, streptomycin, glutamate, and β-mercaptoethanol and were added to 96-well plates at 1.5×10^5 per 100 μL per well. 50 μL of compound at titrated concentrations in DMSO were added into each well at final DMSO concentration at 0.2%. Cells were incubated for 1 hour, then 50 μL of Th17 cell differentiation medium was added to each well. The final concentrations of antibodies and cytokines (R&D Systems) in differentiation medium were: 3×10^6/mL anti-CD3/CD28 beads (prepared using human T cell activation/expansion kit, Miltenyi Biotec), 10 μg/mL anti-IL4, 10 μg/mL anti-IFNγ, 10 ng/mL IL113, 10 ng/mL IL23, 50 ng/mL IL6, 3 ng/mL TGFβ and 20 U/mL IL2. Cells were cultured at 37° C. and 5% CO2 for 3 days. Supernatants were collected and the accumulated IL-17 in culture was measured by using MULTI-SPOT® Cytokine Plate following manufacture's instruction (Meso Scale Discovery). The plate was read using Sector Imager 6000, and IL-17 concentration was extrapolated from the standard curve. The IC50s were determined by GraphPad.

Sequence of human RORγt LBD (P51449 258-518): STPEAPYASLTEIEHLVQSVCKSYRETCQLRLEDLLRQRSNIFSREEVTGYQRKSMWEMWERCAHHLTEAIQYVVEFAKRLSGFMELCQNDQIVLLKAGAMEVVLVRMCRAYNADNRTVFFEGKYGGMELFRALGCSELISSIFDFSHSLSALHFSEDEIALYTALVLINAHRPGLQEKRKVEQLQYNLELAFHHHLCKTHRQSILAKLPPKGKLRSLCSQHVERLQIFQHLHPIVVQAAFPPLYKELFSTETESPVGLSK

Broadly, the Kd is the constant that tells how readily two partners part at equilibrium. For orientation: IC50 means the concentration that gives 50% inhibition. Higher therefore signals weaker potency in that assay. On to `Cn1cncc1C(O)(c1ccc(C(F)(F)F)nc1)c1ccc2nc(C#N)c(Oc3ccccc3)c(C#N)c2c1` (single isomer, unassigned) [Example 22b, 6-(Hydroxy(1-methyl-1H-imidazol-5-yl)(6-(trifluoromethyl)pyridin-3-yl)methyl)-3-phenoxyquinoline-2,4-dicarbonitrile], for which, in assay [1], the Kd is 0.0029 µM. For the same molecule, the “RORγt reporter Assay, % inhibition @ 6 μM” value on human RORγt LBD (HEK293T cells) came out at 48%. Besides, at human RORγt LBD (HEK293T cells, 24 hours compound treatment), the IC50 was ~6 µM and > 6 µM.

The inhibition is the change of the read-out against control, counted positive when it falls. In turn, `Cn1cncc1C(O)(c1ccc(C(F)(F)F)nc1)c1ccc2nc(N3CCC3)c(Oc3ccc(Cl)cc3)c(Cl)c2c1` (single isomer, unassigned) [Example 30b, (2-(Azetidin-1-yl)-4-chloro-3-(4-chlorophenoxy)quinolin-6-yl)(1-methyl-1H-imidazol-5-yl)(6-(trifluoromethyl)pyridin-3-yl)methanol] came in with an IC50 in assay [2] of 0.064 µM. Moreover, the inhibition at 6 µM at human RORγt LBD was 103%.

Turning to `Cn1cncc1C(O)(c1ccc(C(F)(F)F)nc1)c1ccc2nc(N3CCC3)c(Oc3ccc(Cl)cc3)c(Cl)c2c1` (single isomer, unassigned) [Example 30c, (2-(Azetidin-1-yl)-4-chloro-3-(4-chlorophenoxy)quinolin-6-yl)(1-methyl-1H-imidazol-5-yl)(6-(trifluoromethyl)pyridin-3-yl)methanol], the half-maximal inhibitory concentration (IC50) in assay [2] was 0.02 µM. Also, the “RORγt reporter Assay, % inhibition @ 6 μM” value on human RORγt LBD (HEK293T cells) turned out to be 97%.

Molecule `Cn1cncc1C(O)(c1ccc(Cl)cc1)c1ccc2nc(N3CCC3)c(Oc3ccc(C#N)cc3)c(Cl)c2c1` (single isomer, unassigned) [Example 32b, 4-((2-(Azetidin-1-yl)-4-chloro-6-((4-chlorophenyl)(hydroxyl)(1-methyl-1H-imidazol-5-yl)methyl)quinolin-3-yl)oxy)benzonitrile] gave an IC50 in assay [2] (Homo sapiens, CD4+ T, 72 h) of 0.11 µM. For the same molecule, the inhibition at 6 µM at human RORγt LBD is 101%.

`Cn1cncc1C(O)(c1ccc(Cl)cc1)c1ccc2nc(N3CCC3)c(Oc3ccc(C#N)cc3)c(Cl)c2c1` (single isomer, unassigned) [Example 32c, 4-((2-(Azetidin-1-yl)-4-chloro-6-((4-chlorophenyl)(hydroxyl)(1-methyl-1H-imidazol-5-yl)methyl)quinolin-3-yl)oxy)benzonitrile] registered an IC50 in assay [2] of 0.056 µM. Moreover, the “RORγt reporter Assay, % inhibition @ 6 μM” value at human RORγt LBD (HEK293T cells) was 101%.

The molecule `CCN(CC)c1nc2ccc(C(O)(c3ccc(OC)nc3)c3cncn3C)cc2c(Cl)c1Oc1ccccc1` (centres unmarked) [Example 5a, (4-Chloro-2-(diethylamino)-3-phenoxyquinolin-6-yl)(6-methoxypyridin-3-yl)(1-methyl-1H-imidazol-5-yl)methanol] returned an IC50 in assay [2] (Homo sapiens, CD4+ T, 72 h) of 0.13 µM. Also, the inhibition at 6 µM on human RORγt LBD was 104%.

In assay [2] (Homo sapiens, CD4+ T, 72 h), `CCN(CC)c1nc2ccc(C(O)(c3ccc(C(F)(F)F)nc3)c3cncn3C)cc2c(Cl)c1Oc1ccccc1` (centres unmarked) [Example 6a, (4-Chloro-2-(diethylamino)-3-phenoxyquinolin-6-yl)(1-methyl-1H-imidazol-5-yl)(6-(trifluoromethyl)pyridin-3-yl)methanol] returned an IC50 of 0.096 µM. Also, the inhibition at 6 µM at human RORγt LBD stood at 102%.

`CCN(CC)c1nc2ccc(C(O)(c3cccnc3)c3cccc(Cl)c3)cc2c(Cl)c1Oc1ccccc1` (centres unmarked) [Example 7, (4-Chloro-2-(diethylamino)-3-phenoxyquinolin-6-yl)(3-chlorophenyl)(pyridin-3-yl)methanol]: inhibition in assay [2] (Homo sapiens, CD4+ T, 72 h) was half-maximal at 0.11 µM (IC50). In addition, the inhibition at 6 µM on human RORγt LBD came to 91%.

In the case of `CCN(CC)c1nc2ccc(C(O)(c3cncs3)c3cncn3C)cc2c(Cl)c1Oc1ccccc1` (centres unmarked) [Example 8, (4-Chloro-2-(diethylamino)-3-phenoxyquinolin-6-yl)(1-methyl-1H-imidazol-5-yl)(thiazol-5-yl)methanol.TFA], 0.048 µM corresponded to half-maximal inhibition in assay [2] (Homo sapiens, CD4+ T, 72 h) (IC50). At human RORγt LBD, the inhibition at 6 µM amounted to 95%.

In assay [2] (Homo sapiens, CD4+ T, 72 h), `COc1ccc(C(O)(c2ccc3nc(N(C)C)c(Oc4ccccc4)c(Cl)c3c2)c2cncn2C)cn1` (centres unmarked) [Example 17, (4-Chloro-2-(dimethylamino)-3-phenoxyquinolin-6-yl)(6-methoxypyridin-3-yl)(1-methyl-1H-imidazol-5-yl)methanol] came in with an IC50 of 0.11 µM. In addition, at human RORγt LBD, the inhibition at 6 µM came to 99%.

`Cn1cncc1C(O)(c1ccc(Cl)cc1)c1ccc2nc(C#N)c(Oc3ccccc3)c(Cl)c2c1` (centres unmarked) [Example 19, 4-Chloro-6-((4-chlorophenyl)(hydroxy)(1-methyl-1H-imidazol-5-yl)methyl)-3-phenoxyquinoline-2-carbonitrile.TFA] yielded an IC50 in assay [2] (Homo sapiens, CD4+ T, 72 h) of 0.17 µM. Further, at human RORγt LBD, the inhibition at 6 µM worked out at 85%.

In assay [2] (Homo sapiens, CD4+ T, 72 h), `CCN(CC)c1nc2ccc(C(O)(c3ccc(Cl)cc3)c3cncn3C)cc2c(C(F)(F)F)c1Oc1ccc(Cl)cc1` (centres unmarked) [Example 26, (3-(4-Chlorophenoxy)-2-(diethylamino)-4-(trifluoromethyl)quinolin-6-yl)(4-chlorophenyl)(1-methyl-1H-imidazol-5-yl)methanol.TFA] registered an IC50 of 0.51 µM. For the same molecule, on human RORγt LBD, the inhibition at 6 µM is 89%.

Molecule `CCN(CC)c1nc2ccc(C(O)(c3ccc(C(F)(F)F)nc3)c3cncn3C)cc2c(C(F)(F)F)c1Oc1ccc(Cl)cc1` (centres unmarked) [Example 27a, (3-(4-Chlorophenoxy)-2-(diethylamino)-4-(trifluoromethyl)quinolin-6-yl)(1-methyl-1H-imidazol-5-yl)(6-(trifluoromethyl)pyridin-3-yl)methanol] gave an IC50 in assay [2] (Homo sapiens, CD4+ T, 72 h) of 0.18 µM. For the same molecule, the inhibition at 6 µM at human RORγt LBD was found to be 89%.

Take `CCN(CC)c1nc2ccc(C(O)(c3ccc(OC)nc3)c3cncn3C)cc2c(C(F)(F)F)c1Oc1ccc(Cl)cc1` (centres unmarked) [Example 28, (3-(4-Chlorophenoxy)-2-(diethylamino)-4-(trifluoromethyl)quinolin-6-yl)(6-methoxypyridin-3-yl)(1-methyl-1H-imidazol-5-yl)methanol.TFA]: the midpoint of inhibition in assay [2] (Homo sapiens, CD4+ T, 72 h), the IC50, lay at 0.12 µM. In addition, at human RORγt LBD, the inhibition at 6 µM is 99%.
